Holding throughout (assay type): binding
The target in assay [1] is CHD3 PHD1 (Homo sapiens, UniProt Q12873). The assay is described as follows: 1H,15N HSQC NMR titration, CHD3 PHD1. To be noted: compared with unmodified H3; protein:peptide ratio 1:0.5; 298 K.
For assay [2], the system named is CHD3 PHD1/2. Put plainly: 1H,15N HSQC NMR titration, linked CHD3 PHD1/2. The settings on record: 15N-labelled PHD1/2, 298 K, H3 peptides aa 1–12.
In assay [3] the target is CHD3 PHD2 (Homo sapiens, UniProt Q12873). Put plainly: 1H,15N HSQC NMR titration, CHD3 PHD2. To be noted: compared with unmodified H3; protein:peptide ratio 1:0.5; 298 K.
Assay [4] has as its system biotinylated histone peptides (residues 1–20 of H3). Put plainly: Pull-down of GST-CHD3 PHDs with biotinylated histone H3 peptides, Western blot. The settings on record: blots overexposed to the same degree as PHD1/2; 2 h at 4 °C, pH 8.0. In general terms: A western blot detects proteins with antibodies after separation by electrophoresis.

Consider “H3K4me3: histone H3 peptide (aa 1–12) with the K4me3 modification”, for which, in assay [1], the “effect of modification on binding by NMR CSPs, PHD1” value was “strong inhibitory effects”. Also, in assay [2], the “chemical shift perturbations, linked PHD1/2” value is “CSPs consistent with a much weaker association”. The “effect of modification on binding by NMR CSPs, PHD2” value in assay [3] is “strong inhibitory effects”.

For the substance “PHD1: PHD1 (373–427) of CHD3 (GYETDHQDYCEVCQQGGEIILCDTCPRAYHLVCLDPELDRAPEGKWSCPHCEKEG; left off: GST, end not stated, cleaved)”, the “pull-down association of individual PHD1 and PHD2 with histone peptides” value in assay [4] is “barely detectable”.

On to “PHD2: PHD2 (454–508) of CHD3 (DHMEYCRVCKDGGELLCCDACISSYHIHCLNPPLPDIPNGEWLCPRCTCPVLKGR; left off: GST, end not stated, cleaved)”, for which, in assay [4], the “pull-down association of individual PHD1 and PHD2 with histone peptides” value is recorded as “barely detectable”.
